Test [1] addresses serotonin transporters (SERT) (Rattus norvegicus, UniProt P31652). Description: [3H]serotonin uptake inhibition via SERT in rat brain synaptosomes. It is filed as cell-based.
In test [2] the target is dopamine transporters (DAT) (Rattus norvegicus, UniProt P23977). The test can be described thus: [3H]dopamine uptake inhibition via DAT in rat brain synaptosomes. It is filed as cell-based.
The target in test [3] is norepinephrine transporters (NET) (Rattus norvegicus, UniProt Q63380). The test can be described thus: [3H]norepinephrine uptake inhibition via NET in rat brain synaptosomes. The settings on record: times less potent, from IC50 values. The class given is cell-based.
Sequence of norepinephrine transporters (NET) (Q63380 1-617): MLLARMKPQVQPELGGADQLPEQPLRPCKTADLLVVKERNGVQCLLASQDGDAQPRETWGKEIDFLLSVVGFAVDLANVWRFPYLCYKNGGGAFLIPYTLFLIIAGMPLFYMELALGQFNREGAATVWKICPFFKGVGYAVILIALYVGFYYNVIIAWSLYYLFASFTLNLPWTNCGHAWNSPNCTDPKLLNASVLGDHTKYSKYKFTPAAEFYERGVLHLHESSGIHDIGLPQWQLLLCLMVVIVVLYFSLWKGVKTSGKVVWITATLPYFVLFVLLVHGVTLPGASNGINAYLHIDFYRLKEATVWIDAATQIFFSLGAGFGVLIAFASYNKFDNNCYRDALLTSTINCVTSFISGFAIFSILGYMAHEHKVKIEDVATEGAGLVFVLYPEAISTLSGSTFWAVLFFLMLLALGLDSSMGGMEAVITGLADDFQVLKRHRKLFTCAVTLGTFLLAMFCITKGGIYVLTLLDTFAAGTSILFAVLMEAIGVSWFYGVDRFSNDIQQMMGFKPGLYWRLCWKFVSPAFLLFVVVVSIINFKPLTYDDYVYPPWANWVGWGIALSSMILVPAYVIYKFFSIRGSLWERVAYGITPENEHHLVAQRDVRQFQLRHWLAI
The test system of a further test is DAT. Conditions: read-out: binding affinity toward DAT IC50; [3H]WIN-35,428; cited from earlier work.
The conditions of test [4]: cited from earlier work.
[5] abbreviates: read-out: [3H]5-HT uptake via SERT IC50, rat brain synaptosomes, 5 nM [3H]serotonin, mean ± SD, n = 3.

Where two headings read alike, the source gives them in different places.

Sequence of serotonin transporters (SERT) (P31652 whole entry): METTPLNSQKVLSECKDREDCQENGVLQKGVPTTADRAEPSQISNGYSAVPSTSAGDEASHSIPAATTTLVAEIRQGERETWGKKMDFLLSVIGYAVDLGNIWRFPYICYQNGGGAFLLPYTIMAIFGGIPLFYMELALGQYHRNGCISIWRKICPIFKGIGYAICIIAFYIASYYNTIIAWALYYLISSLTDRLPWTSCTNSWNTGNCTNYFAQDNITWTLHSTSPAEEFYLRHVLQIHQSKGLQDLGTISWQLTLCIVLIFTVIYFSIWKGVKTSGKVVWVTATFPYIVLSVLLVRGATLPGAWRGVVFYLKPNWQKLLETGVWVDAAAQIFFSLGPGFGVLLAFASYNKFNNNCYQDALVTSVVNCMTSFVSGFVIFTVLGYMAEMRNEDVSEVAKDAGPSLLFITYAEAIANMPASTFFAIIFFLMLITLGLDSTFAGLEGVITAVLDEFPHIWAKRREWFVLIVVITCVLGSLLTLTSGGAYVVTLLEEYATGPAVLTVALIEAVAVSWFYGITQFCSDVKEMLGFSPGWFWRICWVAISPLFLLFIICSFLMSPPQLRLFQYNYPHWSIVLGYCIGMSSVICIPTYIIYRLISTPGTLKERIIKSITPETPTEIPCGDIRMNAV
Sequence of dopamine transporters (DAT) (P23977 whole entry): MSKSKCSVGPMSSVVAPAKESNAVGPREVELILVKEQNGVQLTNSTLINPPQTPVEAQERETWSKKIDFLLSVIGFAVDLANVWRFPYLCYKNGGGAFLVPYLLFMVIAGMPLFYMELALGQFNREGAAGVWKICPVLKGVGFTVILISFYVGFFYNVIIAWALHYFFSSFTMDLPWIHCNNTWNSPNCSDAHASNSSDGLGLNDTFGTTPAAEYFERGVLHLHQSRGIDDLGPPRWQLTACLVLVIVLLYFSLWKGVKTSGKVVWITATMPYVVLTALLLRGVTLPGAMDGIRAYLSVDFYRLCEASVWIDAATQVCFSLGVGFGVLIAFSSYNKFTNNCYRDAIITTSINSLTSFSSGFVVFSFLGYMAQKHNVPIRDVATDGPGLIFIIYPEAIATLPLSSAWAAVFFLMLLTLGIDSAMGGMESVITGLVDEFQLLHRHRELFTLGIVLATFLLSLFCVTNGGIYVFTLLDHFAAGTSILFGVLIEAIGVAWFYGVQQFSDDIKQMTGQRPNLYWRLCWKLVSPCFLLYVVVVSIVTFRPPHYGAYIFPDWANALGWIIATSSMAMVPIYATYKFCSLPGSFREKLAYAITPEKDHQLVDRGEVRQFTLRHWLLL

On to `COC(=O)C(c1ccccc1)C1CCCCN1` (stereo not shown) [MPH, methyl-2-phenyl-2-(piperidin-2-yl)acetate], for which the IC50 in test [1] was greater than 10 µM; in test [2] it was 0.131 ± 0.0142 µM. The “potency relative to (±)-threo-4F-MPH at the norepinephrine transporter” value in test [3] is given as “around 2.5”.

On to `COC(=O)[C@H](c1ccc(F)cc1)[C@H]1CCCCN1` (racemic) [(±)-erythro-4F-MPH, 4-Fluoromethylphenidate], for which the IC50 in test [1] (setting [5]) was greater than 10 µM.

Take `COC(=O)[C@H](c1ccc(F)cc1)[C@H]1CCCCN1` (racemic) [(±)-threo-4F-MPH, 4-Fluoromethylphenidate]: the IC50 was 0.035 µM with DAT and 8.8 µM in test [1] (setting [5]). Also, the “potency relative to MPH in drug discrimination” value in test [4] is “about three times more potent than MPH”.
